We go through 19 compounds from the NIST ThermoML archive (doi:10.1016/j.fluid.2018.11.011).

A short description of this data set: activity coefficient (dimensionless); of the first substance listed, at infinite dilution; xn = mol fraction of the nth substance listed. The settings on record: 101.33 kPa, Liquid, Chromatography, x1 = 0.

Numbers after ± are expanded uncertainties.

Consider `CCCCCCC` [heptane] + CCCCCCCCCC[N+](C)(C)CCCCCCCCCC.[O-][Cl+3]([O-])([O-])[O-], for which the activity coefficient (308 K) came out at 3.11 ± 0.33, the activity coefficient (323 K) came to 2.96 ± 0.31, the activity coefficient (338 K) turned out to be 2.85 ± 0.3 and the activity coefficient (353 K) stood at 2.67 ± 0.28.

`C=CCCCC` [hex-1-ene] + CCCCCCCCCC[N+](C)(C)CCCCCCCCCC.F[B-](F)(F)F: the activity coefficient runs as follows: (308 K) 1.51 ± 0.16; (323 K) 1.52 ± 0.16; (338 K) 1.53 ± 0.16; (353 K) 1.76 ± 0.18.

On to `C=CCCCC` [hex-1-ene] + CCCCCCCCCC[N+](C)(C)CCCCCCCCCC.[O-][Cl+3]([O-])([O-])[O-], for which the activity coefficient runs as follows: (308 K) 2.28 ± 0.24; (323 K) 1.56 ± 0.16; (338 K) 1.8 ± 0.19; (353 K) 1.73 ± 0.18.

For the compound `CCCCCC` [hexane] + CCCCCCCCCC[N+](C)(C)CCCCCCCCCC.F[B-](F)(F)F, the activity coefficient (308 K) came out at 2.73 ± 0.29, the activity coefficient (323 K) came to 2.51 ± 0.26, the activity coefficient (338 K) is 2.3 ± 0.24 and the activity coefficient (353 K) was determined as 2.2 ± 0.23.

In the case of `CCCCCC` [hexane] + CCCCCCCCCC[N+](C)(C)CCCCCCCCCC.[O-][Cl+3]([O-])([O-])[O-], the activity coefficient runs as follows: (308 K) 2.49 ± 0.26; (323 K) 2.48 ± 0.26; (338 K) 2.47 ± 0.26; (353 K) 2.45 ± 0.26.

With `CO` [methanol] + CCCCCCCCCC[N+](C)(C)CCCCCCCCCC.F[B-](F)(F)F, the activity coefficient (308 K) turned out to be 0.294 ± 0.039, the activity coefficient (323 K) came out at 0.289 ± 0.038, the activity coefficient (338 K) was found to be 0.285 ± 0.038 and the activity coefficient (353 K) was determined as 0.327 ± 0.041.

Turning to `CO` [methanol] + CCCCCCCCCC[N+](C)(C)CCCCCCCCCC.[O-][Cl+3]([O-])([O-])[O-], the activity coefficient came out at 0.447 ± 0.051 (308 K), 0.351 ± 0.043 (323 K), 0.419 ± 0.048 (338 K) and 0.407 ± 0.047 (353 K).

Take `C=CCCCCCC` [oct-1-ene] + CCCCCCCCCC[N+](C)(C)CCCCCCCCCC.F[B-](F)(F)F: the activity coefficient came out at 0.765 ± 0.079 (308 K), 0.757 ± 0.078 (323 K), 0.749 ± 0.078 (338 K) and 0.951 ± 0.097 (353 K).

On to `C=CCCCCCC` [oct-1-ene] + CCCCCCCCCC[N+](C)(C)CCCCCCCCCC.[O-][Cl+3]([O-])([O-])[O-], for which the activity coefficient is 1.1 ± 0.11 (308 K), 0.999 ± 0.1 (323 K), 1.04 ± 0.11 (338 K) and 0.938 ± 0.096 (353 K).

In the case of `CCCCCCCC` [octane] + CCCCCCCCCC[N+](C)(C)CCCCCCCCCC.F[B-](F)(F)F, the activity coefficient (308 K) is 4.41 ± 0.46, the activity coefficient (323 K) amounted to 3.71 ± 0.39, the activity coefficient (338 K) was 3.13 ± 0.33 and the activity coefficient (353 K) worked out at 2.89 ± 0.3.

As for `CCCCCCCC` [octane] + CCCCCCCCCC[N+](C)(C)CCCCCCCCCC.[O-][Cl+3]([O-])([O-])[O-], the activity coefficient runs as follows: (308 K) 3.98 ± 0.42; (323 K) 3.69 ± 0.39; (338 K) 3.42 ± 0.36; (353 K) 3.16 ± 0.33.

For the compound `CCCCC` [pentane] + CCCCCCCCCC[N+](C)(C)CCCCCCCCCC.F[B-](F)(F)F, the activity coefficient runs as follows: (308 K) 1.85 ± 0.19; (323 K) 1.51 ± 0.16; (338 K) 1.24 ± 0.13; (353 K) 1.08 ± 0.11.

Regarding `CCCCC` [pentane] + CCCCCCCCCC[N+](C)(C)CCCCCCCCCC.[O-][Cl+3]([O-])([O-])[O-], the activity coefficient was 1.77 ± 0.18 (308 K), 1.59 ± 0.17 (323 K), 1.44 ± 0.15 (338 K) and 1.28 ± 0.13 (353 K).

`CC(C)O` [propan-2-ol] + CCCCCCCCCC[N+](C)(C)CCCCCCCCCC.F[B-](F)(F)F: the activity coefficient (323 K) was determined as 3.47 ± 0.37, the activity coefficient (338 K) is 2.41 ± 0.25 and the activity coefficient (353 K) worked out at 1.9 ± 0.2.

Consider `CC(C)O` [propan-2-ol] + CCCCCCCCCC[N+](C)(C)CCCCCCCCCC.[O-][Cl+3]([O-])([O-])[O-], for which the activity coefficient reads like this: (323 K) 1.5 ± 0.16; (338 K) 1.54 ± 0.16; (353 K) 1.11 ± 0.11.

With `C1CCOC1` [tetrahydrofuran] + CCCCCCCCCC[N+](C)(C)CCCCCCCCCC.F[B-](F)(F)F, the activity coefficient amounted to 0.662 ± 0.07 (323 K), 0.619 ± 0.066 (338 K) and 0.695 ± 0.073 (353 K).

In the case of `C1CCOC1` [tetrahydrofuran] + CCCCCCCCCC[N+](C)(C)CCCCCCCCCC.[O-][Cl+3]([O-])([O-])[O-], the activity coefficient (323 K) worked out at 0.478 ± 0.053, the activity coefficient (338 K) came to 0.46 ± 0.052 and the activity coefficient (353 K) is 0.536 ± 0.058.

In the case of `ClC(Cl)Cl` [trichloromethane] + CCCCCCCCCC[N+](C)(C)CCCCCCCCCC.F[B-](F)(F)F, the activity coefficient by setting is: (323 K) 0.318 ± 0.04; (338 K) 0.346 ± 0.042; (353 K) 0.399 ± 0.047.

`ClC(Cl)Cl` [trichloromethane] + CCCCCCCCCC[N+](C)(C)CCCCCCCCCC.[O-][Cl+3]([O-])([O-])[O-]: the activity coefficient is, setting by setting: (323 K) 0.224 ± 0.034; (338 K) 0.29 ± 0.038; (353 K) 0.302 ± 0.039.
